From US4900672A, “Method for preservation of nitrile hydration activity” (Nitto Kagaku Kogyo Kabushiki Kaisha, priority 1986, dated 1990)
Read-outs that look alike come from different tables or passages of the source.

Molecular target: T1, nitrile hydratase (Pseudomonas chlororaphis, UniProt P27763+P27764)
T1 sequence (P27764 1-200): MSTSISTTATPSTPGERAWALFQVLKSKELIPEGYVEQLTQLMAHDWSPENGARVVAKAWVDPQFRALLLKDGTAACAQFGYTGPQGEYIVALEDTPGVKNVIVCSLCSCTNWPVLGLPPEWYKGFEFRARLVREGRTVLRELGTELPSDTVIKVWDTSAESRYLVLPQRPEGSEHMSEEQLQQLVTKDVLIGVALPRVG
T1 sequence (P27763 1-220): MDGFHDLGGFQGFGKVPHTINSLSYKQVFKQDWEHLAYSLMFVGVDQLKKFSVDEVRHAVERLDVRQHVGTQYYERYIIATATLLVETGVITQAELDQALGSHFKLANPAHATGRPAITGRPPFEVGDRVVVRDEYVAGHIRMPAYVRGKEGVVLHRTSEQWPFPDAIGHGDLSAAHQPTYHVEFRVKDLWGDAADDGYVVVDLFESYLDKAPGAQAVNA
Assay: Preservation of nitrile hydration activity of washed cell suspension left standing ice-cooled with stabilizer
Type: cell-based, Pseudomonas chlororaphis B23 (FERM BP-187)

[1] = 120 h; Table 3; 10 mg organic acid in 5 ml cell suspension, pH 6.0, left standing 5 days ice-cooled; no stabilizer: 43; read-out: % Residual Activity
[2] = 120 h; Table 2; 10 mg amide in 5 ml cell suspension, pH 6.5, left standing 5 days ice-cooled; no stabilizer: 42; read-out: % Residual Activity
[3] = 120 h, pH 6, read-out: % Residual Activity
[4] = 120 h, pH 6.5, read-out: % Residual Activity
[5] = 120 h; Table 1; 10 mg nitrile in 5 ml cell suspension, pH 6.5, left standing 5 days ice-cooled; no stabilizer: 42; read-out: % Residual Activity
[6] = 96 h, pH 7, read-out: % Residual Activity
[7] = 96 h; Table 4; pH 5.0, 25 mg stabilizer in 5 ml, 4 days ice-cooled; no stabilizer: 2; read-out: % Residual Activity
[8] = 96 h; Table 4; pH 6.0, 25 mg stabilizer in 5 ml, 4 days ice-cooled; no stabilizer: 41; read-out: % Residual Activity
[9] = 96 h; Table 4; pH 6.5, 25 mg stabilizer in 5 ml, 4 days ice-cooled; no stabilizer: 52; read-out: % Residual Activity
[10] = 96 h; Table 4; pH 8.0, 25 mg stabilizer in 5 ml, 4 days ice-cooled; no stabilizer: 26; read-out: % Residual Activity
[11] = Table 5; stabilizer concentration 0.01 g/l, pH 6.0, 3 days ice-cooled; no stabilizer (pH 6.5): 52; read-out: % Residual Activity
[12] = 96 h, pH 5.5, read-out: % Residual Activity
[13] = pH 6, read-out: % Residual Activity

Q: Which activity at 10 mg [1] does the source give for O=C(O)C(O)CO (racemic) [DL-Glyceric acid] here?
A: 87%

Q: For CC(N)=O [Acetamide], which activity at 10 mg [2] is on record?
A: 67%

Q: With CC(=O)O [Acetic acid] as the molecule, how does the activity at 10 mg [3] read?
A: 77%

Q: How did the activity at 10 mg [4] turn out when CC#N [Acetonitrile] was run?
A: 71%

Q: For C=CC(N)=O [Acrylamide], which activity at 10 mg [2] is on record?
A: 73%

Q: With C=CC(=O)O [Acrylic acid] as the molecule, how does the activity at 10 mg [1] read?
A: 70%

Q: For C=CC#N [Acrylonitrile], which activity at 10 mg [5] is on record?
A: 71%

Q: With N#CCCCCC#N [Adiponitrile] as the molecule, how does the activity at 10 mg [5] read?
A: 84%

Q: How did the activity at 10 mg [2] turn out when NC(=O)c1ccccc1 [Benzamide] was run?
A: 65%

Q: O=C(O)c1ccccc1 [Benzoic acid] was tested. Which activity at 10 mg [1] did it give?
A: 68%

Q: Which activity at 10 mg [5] does the source give for N#Cc1ccccc1 [Benzonitrile] here?
A: 70%

Q: With CCCCCC(=O)O [Caproic acid] as the molecule, how does the activity at 10 mg [1] read?
A: 83%

Q: Which activity at 10 mg [4] does the source give for NC(=O)CCl [Chloroacetamide] here?
A: 71%

Q: How did the activity at 10 mg [5] turn out when N#CCCl [Chloroacetonitrile] was run?
A: 77%

Q: O=C(O)CC(O)(CC(=O)O)C(=O)O [Citric acid] was tested. Which activity at 10 mg [1] did it give?
A: 77%

Q: How did the activity at 10 mg [5] turn out when N#CCC(N)=O [Cyanoacetamide] was run?
A: 75%

Q: How did the activity at 10 mg [5] turn out when N#CCC(=O)O [Cyanoacetic acid] was run?
A: 69%

Q: O=CO [Formic Acid] was tested. Which activity at 10 mg [3] did it give?
A: 83%

Q: O=C(O)/C=C/C(=O)O [Fumaric acid] was tested. Which activity at 10 mg [3] did it give?
A: 82%

Q: Which activity at 10 mg [2] does the source give for NCC(N)=O [Glycine amide] here?
A: 63%

Q: For N#CCN [Glycine nitrile], which activity at 10 mg [5] is on record?
A: 68%

Q: For O=C(O)CO [Glycolic acid], which activity at 10 mg [1] is on record?
A: 77%

Q: For O=CC(=O)O [Glyoxylic acid], which activity at 10 mg [1] is on record?
A: 88%

Q: What does the source list for CC(C)C(N)=O [Isobutyramide]?
A: activity at 25 mg [6]: 78%; activity at 25 mg [7]: 3%; activity at 25 mg (96 h; Table 4; pH 5.5, 25 mg stabilizer in 5 ml, 4 days ice-cooled; no stabilizer: 32; read-out: % Residual Activity): 100%; activity at 25 mg [8]: 100%; activity at 25 mg [9]: 87%; activity at 25 mg [10]: 52%; activity at 10 mg [4]: 99%; remaining activity at 10 µg/mL [11]: 82%; remaining activity at 100 µg/mL (Table 5; stabilizer concentration 0.1 g/l, pH 6.0, 3 days ice-cooled; read-out: % Residual Activity): 88%; remaining activity at 1000 µg/mL (Table 5; stabilizer concentration 1.0 g/l, pH 6.0, 3 days ice-cooled; read-out: % Residual Activity): 100%; remaining activity at 5000 µg/mL (Table 5; stabilizer concentration 5.0 g/l, pH 6.0, 3 days ice-cooled; read-out: % Residual Activity): 100%; remaining activity at 20000 µg/mL (Table 5; stabilizer concentration 20 g/l, pH 6.0, 3 days ice-cooled; read-out: % Residual Activity): 100%; remaining activity at 50000 µg/mL (Table 5; stabilizer concentration 50 g/l, pH 6.0, 3 days ice-cooled; read-out: % Residual Activity): 90%

Q: Which results are given for CC(C)C(=O)O [Isobutyric acid]?
A: activity at 25 mg (96 h, pH 5, read-out: % Residual Activity): 1%; activity at 25 mg [12]: 100%; activity at 25 mg (96 h, pH 6, read-out: % Residual Activity): 100%; activity at 25 mg (96 h, pH 6.5, read-out: % Residual Activity): 88%; activity at 25 mg [6]: 78%; activity at 25 mg (96 h, pH 8, read-out: % Residual Activity): 49%; activity at 10 mg [3]: 97%; remaining activity at 100 µg/mL [13]: 83%; remaining activity at 1000 µg/mL [13]: 100%; remaining activity at 5000 µg/mL [13]: 97%; remaining activity at 20000 µg/mL [13]: 95%; remaining activity at 50000 µg/mL [13]: 87%; remaining activity at 10 µg/mL (read-out: % Residual Activity): 80%

Q: What does the source list for CC(C)C#N [Isobutyronitrile]?
A: activity at 25 mg [12]: 98%; activity at 25 mg [7]: 5%; activity at 25 mg [8]: 97%; activity at 25 mg [9]: 85%; activity at 25 mg (96 h; Table 4; pH 7.0, 25 mg stabilizer in 5 ml, 4 days ice-cooled; no stabilizer: 43; read-out: % Residual Activity): 80%; activity at 25 mg [10]: 53%; activity at 10 mg [5]: 95%; remaining activity at 10 µg/mL [11]: 78%; remaining activity at 100 µg/mL [13]: 85%; remaining activity at 1000 µg/mL [13]: 98%; remaining activity at 5000 µg/mL [13]: 100%; remaining activity at 20000 µg/mL [13]: 91%

Q: CC(O)C(N)=O (stereo not shown) [Lactamide] was tested. Which activity at 10 mg [2] did it give?
A: 70%

Q: CC(O)C#N (stereo not shown) [Lactonitrile] was tested. Which activity at 10 mg [5] did it give?
A: 73%

Q: O=C(O)CC(O)C(=O)O (stereo not shown) [Malic acid] was tested. Which activity at 10 mg [1] did it give?
A: 81%

Q: How did the activity at 10 mg [2] turn out when NC(=O)CC(N)=O [Malondiamide] was run?
A: 66%

Q: Which activity at 10 mg [1] does the source give for O=C(O)CC(=O)O [Malonic acid] here?
A: 63%

Q: Which activity at 10 mg (120 h, pH 6.5; read-out: % Residual Activity) does the source give for N#CCC#N [Malononitrile] here?
A: 69%

Q: C=C(C)C(N)=O [Methacrylamide] was tested. Which activity at 10 mg [2] did it give?
A: 79%

Q: With C=C(C)C(=O)O [Methacrylic acid] as the molecule, how does the activity at 10 mg [1] read?
A: 81%

Q: Which activity at 10 mg [5] does the source give for C=C(C)C#N [Methacrylonitrile] here?
A: 80%

Q: For O=C(O)CCl [Monochloroacetic acid], which activity at 10 mg [1] is on record?
A: 70%

Q: NC(=O)c1cccnc1 [Nicotinamide] was tested. Which activity at 10 mg [2] did it give?
A: 59%

Q: Which activity at 10 mg [5] does the source give for N#Cc1cccnc1 [Nicotinonitrile] here?
A: 73%

Q: How did the activity at 10 mg [1] turn out when O=C(O)CC(=O)C(=O)O [Oxalacetic acid] was run?
A: 83%

Q: For CCC(N)=O [Propionamide], which activity at 10 mg [2] is on record?
A: 93%

Q: How did the activity at 10 mg [3] turn out when CCC(=O)O [Propionic acid] was run?
A: 93%

Q: For CCC#N [Propionitrile], which activity at 10 mg [5] is on record?
A: 90%

Q: With NC(=O)CCC(N)=O [Succindiamide] as the molecule, how does the activity at 10 mg [2] read?
A: 68%

Q: O=C(O)CCC(=O)O [Succinic acid] was tested. Which activity at 10 mg [3] did it give?
A: 80%

Q: How did the activity at 10 mg [5] turn out when N#CCCC#N [Succiononitrile] was run?
A: 81%

Q: CCCCC(=O)O [Valeric acid] was tested. Which activity at 10 mg [3] did it give?
A: 84%

Q: How did the activity at 10 mg [2] turn out when CCCC(N)=O [n-Butyramide] was run?
A: 89%

Q: How did the activity at 10 mg [5] turn out when CCCC#N [n-Butyronitrile] was run?
A: 88%

Q: How did the activity at 10 mg [2] turn out when CCCCCC(N)=O [n-Capronamide] was run?
A: 88%

Q: How did the activity at 10 mg [5] turn out when CCCCCC#N [n-Capronitrile] was run?
A: 89%

Q: For CCCCC(N)=O [n-Valeramide], which activity at 10 mg [2] is on record?
A: 94%

Q: For CCCCC#N [n-Valeronitrile], which activity at 10 mg [5] is on record?
A: 93%

Q: With NCCC(N)=O [β-Aminopropionamide] as the molecule, how does the activity at 10 mg [2] read?
A: 68%

Q: For NCCC(=O)O [β-Aminopropionic acid], which activity at 10 mg [3] is on record?
A: 71%

Q: N#CCCN [β-Aminopropionitrile] was tested. Which activity at 10 mg [5] did it give?
A: 70%

Q: How did the activity at 10 mg [2] turn out when NC(=O)CCCl [β-Chloropropionamide] was run?
A: 71%

Q: Which activity at 10 mg [5] does the source give for N#CCCCl [β-Chloropropionitrile] here?
A: 80%

Q: How did the activity at 10 mg [2] turn out when NC(=O)CCO [β-Hydroxypropionamide] was run?
A: 74%

Q: With N#CCCO [β-Hydroxypropionitrile] as the molecule, how does the activity at 10 mg [5] read?
A: 84%
